Measurements: US9579407B2, “Radiolabeled compounds and their use as radiotracers for quantitative imaging of phosphodiesterase (PDE10A) in mammals” (TAKEDA PHARMACEUTICAL COMPANY LIMITED, priority 2011, dated 2017)
Values belong to the molecule of their own block, whether it stands above or below them.

Key:
[1] = test system: Human PDE1A, 2A3, 3A, 4D2, 5A1, 6AB, 7B, 8A1, 9A2, and 11A4 enzymes; experiment: PDE family enzyme inhibition selectivity assay (SPA); type: biochemical; details: ratio of IC50 for each PDE other than PDE10A to IC50 for PDE10A
Experimental: The PDE10A IC50 is a measure of the ability of the test compound to inhibit the action of the PDE10A enzyme. To determine the selectivity of the test compounds for PDE10A, the IC50 of the compound was determined for PDEs 1-9, and 11.
Human PDE1A, 3A, 4D2, 5A1, 7B, 8A1, 9A2, and 11A4 enzymes were purchased from BPS Bioscience. Human PDE6AB enzyme was purchased from Scottish Biomedical. Human PDE2A3 was generated from Sf9 transfected with the full-length gene in house. PDE activities were measured using a SPA (Scintillation Proximity Assay) (PerkinElmer). To evaluate the inhibitory activity, 10 μL of serial diluted compounds were incubated with 20 μL of PDE enzyme in assay buffer (50 mM HEPES-NaOH, 8.3 mM MgCl2, 1.7 mM EGTA, 0.1% BSA (pH 7.4)) for 30 min. at room temperature. Final concentration of DMSO in the assay was 1% as compounds were tested in duplicate in 96-well half-area plates (Corning). To start the reaction, 10 μL of substrate [^3H] cGMP (PerkinElmer) for PDE1A, 2A3, 5A1, 6AB, 9A2, and 11A4 or [^3H] cAMP (PerkinElmer) for PDE3A, 4D2, 7B, and 8A1 was added for a final assay volume of 40 μL. After 60 min incubation at room temperature, yttrium SPA beads containing zinc sulphate were added (20 μL at 6 mg/mL) to terminate the PDE reaction. After being settled for 60 min., assay plates were counted in a scintillation counter (PerkinElmer) to allow calculation of inhibition rate. IC50 values were calculated on the basis of 0% control wells with DMSO and 100% control wells without enzyme. Selectivity was defined as the ratio of IC50 for each PDE other than PDE10A to IC50 for PDE10A.

Human PDE10A enzyme = Human PDE10A enzyme (Homo sapiens (Human), UniProt Q9Y233); experiment: PDE10A enzyme inhibition (SPA, [3H]cGMP); type: biochemical; details: unlabeled compound
Chain of Human PDE10A enzyme (Q9Y233 267-1055): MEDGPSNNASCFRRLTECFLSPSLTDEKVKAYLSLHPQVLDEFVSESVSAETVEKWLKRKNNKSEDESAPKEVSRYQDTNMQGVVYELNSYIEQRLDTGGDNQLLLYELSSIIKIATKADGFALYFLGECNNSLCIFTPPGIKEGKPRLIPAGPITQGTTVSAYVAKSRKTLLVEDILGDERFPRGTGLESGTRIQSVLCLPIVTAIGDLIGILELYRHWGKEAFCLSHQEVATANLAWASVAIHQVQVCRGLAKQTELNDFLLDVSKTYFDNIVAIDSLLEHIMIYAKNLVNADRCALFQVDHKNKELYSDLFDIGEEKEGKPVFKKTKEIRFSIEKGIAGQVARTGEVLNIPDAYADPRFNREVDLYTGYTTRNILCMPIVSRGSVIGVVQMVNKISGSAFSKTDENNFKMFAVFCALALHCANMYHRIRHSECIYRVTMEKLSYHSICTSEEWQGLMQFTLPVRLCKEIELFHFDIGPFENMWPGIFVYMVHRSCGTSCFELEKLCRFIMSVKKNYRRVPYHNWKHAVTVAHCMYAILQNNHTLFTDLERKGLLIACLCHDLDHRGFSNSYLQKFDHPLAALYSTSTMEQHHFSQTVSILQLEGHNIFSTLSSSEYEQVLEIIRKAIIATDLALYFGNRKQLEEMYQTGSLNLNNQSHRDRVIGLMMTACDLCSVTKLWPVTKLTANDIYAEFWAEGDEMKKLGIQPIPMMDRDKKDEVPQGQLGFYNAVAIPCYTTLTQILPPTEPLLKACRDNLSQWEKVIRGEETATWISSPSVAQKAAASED
Experimental: Many of the compounds within the present invention had activity in inhibiting the human PDE10A enzyme in the aforementioned assay, generally with an […] of less than about 0.1 μM. Such a result is indicative of the intrinsic activity of the compounds in use as inhibitors of the PDE10A enzyme.
Human PDE10A enzyme was generated from Sf9 or COS-7 cells transfected with the full-length gene. Cloned enzyme was extracted from homogenized cell pellets. The extracted enzyme from sf9 cells was partially purified using His-tag affinity column. The enzyme was stored at −70° C. until use. PDE activity was measured using a SPA (Scintillation Proximity Assay) (GE Healthcare). To evaluate the inhibitory activity, 10 μL of serial diluted compounds were incubated with 20 μL of PDE enzyme in assay buffer (50 mM HEPES-NaOH, 8.3 mM MgCl2, 1.7 mM EGTA, 0.1% BSA (pH 7.4)) for 30 min. at room temperature. Final concentration of DMSO in the assay was 1% as compounds were tested in duplicate in 96-well half-area plates (Corning). To start the reaction, 10 μL of substrate [^3H] cGMP (25 or 50 nM; enclosed in SPA kits from GE Healthcare or purchased from PerkinElmer, respectively) was added for a final assay volume of 40 μL. After 60 min incubation at room temperature, yttrium SPA beads containing zinc sulphate were added (20 μL at 6 mg/mL) to terminate the PDE reaction. After being settled for 60 min., assay plates were counted in a scintillation counter (PerkinElmer) to allow calculation of inhibition rate. IC50 values were calculated on the basis of 0% control wells with DMSO and 100% control wells without enzyme.

PDE10A [2] = experiment: PET specific radioligand binding in putamen (PDE10A rich region) vs cerebellum, [11C]compound; type: in vivo, rhesus monkeys; details: for ratio of the specific binding between the uptake in the target region and the uptake in the cerebellum: increased up to, during 123 min PET measurements; for time of peak of specific binding in Putamen: uptake of the putamen minus the cerebellum
Experimental: (§1) Since the compounds of the present invention show efficacy exhibition, they are useful as PET radioligands of PDE10A.
(§2) PET measurements were performed with the High Resolution Research Tomograph system (HRRT) (Siemens Molecular Imaging) using two rhesus monkeys with body weight of 4450 g and 5000 g. The monkeys were maintained under gas anesthesia of sevoflurane, oxygen, and medical air during PET measurements. 123-min dynamic brain PET data were acquired in List mode after 150 and 162 MBq of [^11C] compound of Example 2 and 159 and 162 MBq of [^11C] compound of Example 3 were injected intravenously. List-mode data were reconstructed using the ordinary Poisson-3D-ordered subset expectation maximization (OP-3D-OSEM) algorithm, with 10 iterations and 16 subsets including modelling of the point spread function (PSF). During PET acquisition, venous blood sampling was performed for the metabolite analysis.
(§3) Regions of interest (ROIs) for Caudate, Putamen, Nucleus Accumbens, Thalamus, Cerebellum, Frontal cortex, Temporal cortex, and whole brain were delineated on MRI/PET coregistered images using PMOD software (v3.1 PMOD Technologies Ltd. Zurich, Switzerland). Time activity curves were generated for these regions. The uptake was expressed as % ID (=total radioactivity in the brain (MBq)*100/injected radioactivity (MBq)) or % SUV (=radioactivity in the region (MBq/cc)*100/(injected radioactivity (MBq)/Body weight (g))). Metabolite fraction in the plasma was measured by a radio LC analysis. The results are shown in FIGS. 3, 4, 5, 6, 7, 8, 9 and 10.

[3] = PET brain uptake (whole brain and regional), [11C]compound; type: in vivo, rhesus monkeys; details: for regional brain uptake: regions of interest on MRI/PET coregistered images; for time at which whole brain uptake decreased to half / time at which whole brain uptake reached peak / whole brain uptake at the peak: i.v.; for time at which whole brain uptake reached peak: 123-min PET; for whole brain uptake at the peak: % ID = total radioactivity in the brain*100/injected radioactivity
Experimental: as §2
(§4) T1-weighted MR images were acquired with an MRI system GE 1.5 T Signa unit (Milwaukee, Wis., USA). The T1 sequence was a 3-D SPGR protocol with the following settings: repetition time (TR) 21 ms, flip angle 35°, FOV 12.8, matrix 256×256×128, 128×1.0 mm slices.
as §3

[4] = Plasma metabolite analysis (parent fraction) during PET, [11C]compound; type: in vivo, rhesus monkeys; details: venous plasma, i.v.
Experimental: as §2, §3

[5] = Plasma metabolite analysis (parent fraction) during PET, [18F]compound; type: in vivo, cynomolgus monkeys; details: venous plasma, i.v.
Experimental: (§5) PET measurements were performed with the High Resolution Research Tomograph system (HRRT) (Siemens Molecular Imaging) using three cynomolgus monkeys with body weight of 3730 g to 4845 g. The monkeys were maintained under gas anesthesia of sevoflurane, oxygen, and medical air during PET measurements.
(§6) 180-min dynamic brain PET data were acquired in List mode after 148 and 157 MBq of [^18F]compound of Example 119 and 159 and 163 MBq of [^18F]compound of Example 120 were injected intravenously. List-mode data were reconstructed using the ordinary Poisson-3D-ordered subset expectation maximization (OP-3D-OSEM) algorithm, with 10 iterations and 16 subsets including modelling of the point spread function (PSF). During PET acquisition, venous blood sampling was performed for the metabolite analysis.
as §3, with “(v3.2PMOD” for “(v3.1 PMOD”, “13, 14, 15, 16, 17, 18, 19” for “3, 4, 5, 6, 7, 8, 9”, “20.” for “10.”

PDE10A [6] = experiment: PET specific radioligand binding in putamen (PDE10A rich region) vs cerebellum, [18F]compound; type: in vivo, cynomolgus monkeys; details: for ratio of the specific binding between the uptake in the target region and the uptake in the cerebellum: increased up to; for time of peak of specific binding in Putamen: uptake of the putamen minus the cerebellum
Experimental: as §1, §5, §6
as §3, with “(v3.2PMOD” for “(v3.1 PMOD”, “13, 14, 15, 16, 17, 18, 19” for “3, 4, 5, 6, 7, 8, 9”, “20.” for “10.”

[7] = PET brain uptake (whole brain and regional), [18F]compound; type: in vivo, cynomolgus monkeys; details: for regional brain uptake: regions of interest on MRI/PET coregistered images; for time at which whole brain uptake decreased to half / time at which whole brain uptake reached peak / whole brain uptake at the peak: i.v.; for time at which whole brain uptake reached peak: 180-min PET; for whole brain uptake at the peak: % ID = total radioactivity in the brain*100/injected radioactivity
Experimental: as §5, §6, §4
as §3, with “(v3.2PMOD” for “(v3.1 PMOD”, “13, 14, 15, 16, 17, 18, 19” for “3, 4, 5, 6, 7, 8, 9”, “20.” for “10.”

Structure (SMILES): [2H]C([2H])(F)C([2H])([2H])Oc1cn(-c2ccc(C3CCOCC3)cc2F)nc(-c2ccnn2-c2ccccc2)c1=O [Reference Example 123, 5-(2-Fluoroethoxy-d4)-1-{2-fluoro-4-(tetrahydro-2H-pyran-4-yl)phenyl}-3-(1-phenyl-1H-pyrazol-5-yl)pyridazin-4(1H)-one]
Selectivity over other PDEs [1]: >100-fold
IC50 (Human PDE10A enzyme): < 10 nM

Structure (SMILES): [11CH3]Oc1cn(-c2ccc(N3CC(F)(F)C3)cc2F)nc(-c2ccnn2-c2ccccc2)c1=O [Example 2]
ratio of the specific binding between the uptake in the target region and the uptake in the cerebellum (PDE10A [2]): 2.5-2.7
time of peak of specific binding in Putamen (PDE10A [2]): 48 min
regional brain uptake [3]: Putamen showed highest uptake, followed by Caudate, Nuclear Accumbens and Thalamus
time at which whole brain uptake decreased to half [3]: 60 to 66 min
time at which whole brain uptake reached peak [3]: 2.5 to 7.5 min
whole brain uptake at the peak [3]: 3.3-5.1 % ID
fraction of parent compound ([4]; at 30 min): 70-76%
fraction of parent compound ([4]; at 90 min): 52-58%

Structure (SMILES): COc1cn(-c2ccc(N3CC(F)(F)C3)cc2F)nc(-c2ccnn2-c2ccccc2)c1=O [Reference Example 18, 1-[4-(3,3-Difluoroazetidin-1-yl)-2-fluorophenyl]-5-methoxy-3-(1-phenyl-1H-pyrazol-5-yl)pyridazin-4(1H)-one]
Selectivity over other PDEs [1]: >1000-fold
IC50 (Human PDE10A enzyme): < 1 nM

Structure (SMILES): [2H]C([2H])(F)C([2H])([2H])Oc1cn(-c2ccc(C3CCOCC3)cc2F)nc(-c2ccnn2-c2ccccc2)c1=O [Example 120, 5-(2-[^18F]fluoro-ethyloxy-d4)-1-(2-fluoro-4-(tetrahydro-2H-pyran-4-yl)phenyl)-3-(1-phenyl-1H-pyrazol-5-yl)pyridazin-4(1H)-one]
fraction of parent compound ([5]; at 60 min): 64-74%
fraction of parent compound ([5]; at 180 min): 51-72%
ratio of the specific binding between the uptake in the target region and the uptake in the cerebellum (PDE10A [6]; during 65-75 min PET measurements): 1.5-1.9
time of peak of specific binding in Putamen (PDE10A [6]): 35 to 41 min
regional brain uptake [7]: Putamen showed highest uptake, followed by Caudate, Nuclear Accumbens and Thalamus
time at which whole brain uptake decreased to half [7]: 23 to 35 min
time at which whole brain uptake reached peak [7]: 2.5 to 4.5 min
whole brain uptake at the peak [7]: 3.6 % ID

Structure (SMILES): [2H]C([2H])(F)Oc1cn(-c2ccc(C3CCOCC3)cc2F)nc(-c2ccnn2-c2ccccc2)c1=O [Reference Example 122, 5-(Fluoromethoxy-d2)-1-{2-fluoro-4-(tetrahydro-2H-pyran-4-yl)phenyl}-3-(1-phenyl-1H-pyrazol-5-yl)pyridazin-4(1H)-one]
Selectivity over other PDEs [1]: >1000-fold
IC50 (Human PDE10A enzyme): < 10 nM

Structure (SMILES): [2H]C([2H])(F)Oc1cn(-c2ccc(C3CCOCC3)cc2F)nc(-c2ccnn2-c2ccccc2)c1=O [Example 119, 5-([^18F]fluoro-methyloxy-d2)-1-(2-fluoro-4-(tetrahydro-2H-pyran-4-yl)phenyl)-3-(1-phenyl-1H-pyrazol-5-yl)pyridazin-4(1H)-one]
fraction of parent compound ([5]; at 60 min): 62-71%
fraction of parent compound ([5]; at 180 min): 60-63%
ratio of the specific binding between the uptake in the target region and the uptake in the cerebellum (PDE10A [6]; during 47-65 min PET measurements): 3.0-3.9
time of peak of specific binding in Putamen (PDE10A [6]): 18.5 to 29 min
regional brain uptake [7]: Putamen showed highest uptake, followed by Caudate, Nuclear Accumbens and Thalamus
time at which whole brain uptake decreased to half [7]: 23 min
time at which whole brain uptake reached peak [7]: 2.5 min
whole brain uptake at the peak [7]: 5.2-5.7 % ID

Continued, in another order:

Selectivity over other PDEs [1]: >1000-fold
IC50 (Human PDE10A enzyme): < 1 nM
Structure (SMILES): COc1cn(-c2ccc(C3CCOCC3)cc2F)nc(-c2ccnn2-c2ccccc2)c1=O [Reference Example 16, 1-[2-Fluoro-4-(tetrahydro-2H-pyran-4-yl)phenyl]-5-methoxy-3-(1-phenyl-1H-pyrazol-5-yl)pyridazin-4(1H)-one]

time at which whole brain uptake decreased to half [3]: 30 min
time at which whole brain uptake reached peak [3]: 2 min
whole brain uptake at the peak [3]: 3.3-4.1 % ID
fraction of parent compound ([4]; at 30 min): 56-57%
fraction of parent compound ([4]; at 90 min): 45-53%
Structure (SMILES): [11CH3]Oc1cn(-c2ccc(C3CCOCC3)cc2F)nc(-c2ccnn2-c2ccccc2)c1=O [Example 3, 1-[2-Fluoro-4-(tetrahydro-2H-pyran-4-yl)phenyl]-5-[^11C]methoxy-3-(1-phenyl-1H-pyrazol-5-yl)pyridazin-4(1H)-one]
ratio of the specific binding between the uptake in the target region and the uptake in the cerebellum (PDE10A [2]): approximately six
time of peak of specific binding in Putamen (PDE10A [2]): 42 min
regional brain uptake [3]: Putamen showed highest uptake, followed by Caudate, Nuclear Accumbens and Thalamus
